Results taken from patent publication US8420657B2 (Novartis AG, priority 2008, dated 2013).

Tests used:
[1] = test system: JAK1/JAK2-dependent nuclear translocation of STAT1-GFP in HT1080 fibrosarcoma cells; assay: STAT1 nuclear translocation assay (Cellomics), IFN-γ stimulated HT1080 STAT1-GFP cells; assay type: cell-based; details: Homo sapiens, HT-1080, STAT1 translocation pathway
In short: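 HT1080 cells stably expressing STAT1-GFP, pre-treated 30 min with compound (10 μM–0.003 μM, 0.1% DMSO), then stimulated 2 h with 100 ng/ml IFN-γ, fixed and Hoechst-stained. Nuclear-cytoplasmic GFP differential imaged over ≥1000 cells/well, normalised to unstimulated and DMSO-stimulated wells for IC50.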

[2] = target: T1, GST-JAK2(808-1132) (Homo sapiens, UniProt O60674); assay: JAK2 kinase assay (Caliper mobility shift, LabChip 3000); assay type: biochemical
T1 construct: GST-JAK2(808-1132); purchased Invitrogen (Carlsbad, USA) #4288
In short: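 Recombinant GST-JAK2(808-1132) kinase domain with FITC-labelled JAK3tide peptide substrate and ATP; 60 min at 30 °C, EDTA stop. Substrate/product ratio read by microfluidic mobility shift; compounds at 8 final concentrations, 10 to 0.003 μM.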

T1 sequence (O60674 808-1132): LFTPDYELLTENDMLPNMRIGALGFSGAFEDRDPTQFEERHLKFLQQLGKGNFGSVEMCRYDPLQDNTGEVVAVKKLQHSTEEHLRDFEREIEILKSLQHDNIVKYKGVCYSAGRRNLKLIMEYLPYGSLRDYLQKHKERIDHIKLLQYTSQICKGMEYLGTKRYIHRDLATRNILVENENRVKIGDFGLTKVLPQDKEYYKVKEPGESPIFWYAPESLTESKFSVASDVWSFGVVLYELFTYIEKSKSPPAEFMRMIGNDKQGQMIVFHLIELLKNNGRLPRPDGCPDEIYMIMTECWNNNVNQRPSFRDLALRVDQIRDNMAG

Row | IC50 [1] | IC50 [2] | Compound
1 | 6280 nM | 40.5 nM | CCN1CCN(Cc2c(F)cc(-n3ccc4cnc(Nc5ccc(F)c(C)c5)nc43)cc2F)CC1 [Example 132, {7-[4-(4-Ethyl-piperazin-1-ylmethyl)-3,5-difluoro-phenyl]-7H-pyrrolo[2,3-d]pyrimidin-2-yl}-(4-fluoro-3-methyl-phenyl)-amine]
2 | 573 nM | 7.1 nM | CC(=O)N1CCN(Cc2c(F)cc(-n3ccc4cnc(Nc5ccc(F)c(C)c5)nc43)cc2F)CC1 [Example 133, 1-(4-{2,6-Difluoro-4-[2-(4-fluoro-3-methyl-phenylamino)-pyrrolo[2,3-d]pyrimidin-7-yl]-benzyl}-piperazin-1-yl)-ethanone]
3 | 1880 nM | 20.5 nM | CCN1CCN(Cc2c(F)cc(-n3ccc4cnc(Nc5ccc(F)c(C)c5)nc43)cc2F)CC1=O [Example 134, 4-{2,6-Difluoro-4-[2-(4-fluoro-3-methyl-phenylamino)-pyrrolo[2,3-d]pyrimidin-7-yl]-benzyl}-1-ethyl-piperazin-2-one]
4 | 420 nM | 4.9 nM | COCc1ccc(Nc2ncc3ccn(-c4cc(F)c(CN5CCOCC5)c(F)c4)c3n2)cc1 [Example 135, [7-(3,5-Difluoro-4-morpholin-4-ylmethyl-phenyl)-7H-pyrrolo[2,3-d]pyrimidin-2-yl]-(4-methoxymethyl-phenyl)-amine]
5 | 775 nM | 11 nM | N#Cc1ccc(Nc2ncc3ccn(-c4cc(F)c(CN5CCOCC5)c(F)c4)c3n2)cc1 [Example 136, 4-[7-(3,5-Difluoro-4-morpholin-4-ylmethyl-phenyl)-7H-pyrrolo[2,3-d]pyrimidin-2-ylamino]-benzonitrile]
6 | 150 nM | 3.3 nM | Cc1cc(Nc2ncc3ccn(-c4cc(F)c(CN5CCS(=O)(=O)CC5)c(F)c4)c3n2)ccc1F [Example 137, {7-[4-(1,1-Dioxido-thiomorpholin-4-ylmethyl)-3,5-difluoro-phenyl]-7H-pyrrolo[2,3-d]pyrimidin-2-yl}-(4-fluoro-3-methyl-phenyl)-amin]
7 | 165 nM | < 3 nM | O=C(c1ccc(Nc2ncc3ccn(-c4cc(F)c(CN5CCOCC5)c(F)c4)c3n2)cc1)N1CCOCC1 [Example 138, {4-[7-(3,5-Difluoro-4-morpholin-4-ylmethyl-phenyl)-7H-pyrrolo[2,3-d]pyrimidin-2-ylamino]-phenyl}-morpholin-4-yl-methanone]
8 | 630 nM | 11 nM | Cc1ccc(Nc2ncc3ccn(-c4ccc(C[S+](C)[O-])cc4)c3n2)cc1 (centres unmarked) [Example 139, [7-(4-Methanesulfinylmethyl-phenyl)-7H-pyrrolo[2,3-d]pyrimidin-2-yl]-p-tolyl-amine]
9 | 310 nM | 4.5 nM | Cc1ccc(Nc2ncc3ccn(-c4ccc(CS(C)(=O)=O)cc4)c3n2)cc1 [Example 140, [7-(4-Methanesulfonylmethyl-phenyl)-7H-pyrrolo[2,3-d]pyrimidin-2-yl]-p-tolyl-amine]
10 | 130 nM | < 3 nM | Cc1ccc(Nc2ncc3ccn(-c4ccc(CC(=O)N5CCOCC5)cc4)c3n2)cc1 [Example 141, 1-Morpholin-4-yl-2-[4-(2-p-tolylamino-pyrrolo[2,3-d]pyrimidin-7-yl)-phenyl]-ethanone]
11 | 101 nM | < 3 nM | COc1cc(Nc2ncc3ccn(-c4ccc(CC(=O)N5CCOCC5)cc4)c3n2)ccc1F [Example 142, 2-{4-[2-(4-Fluoro-3-methoxy-phenylamino)-pyrrolo[2,3-d]pyrimidin-7-yl]-phenyl}-1-morpholin-4-yl-ethanone]
12 | 195 nM | < 3 nM | O=C(Cc1ccc(-n2ccc3cnc(Nc4ccccc4)nc32)cc1)N1CCOCC1 [Example 143, 1-Morpholin-4-yl-2-[4-(2-phenylamino-pyrrolo[2,3-d]pyrimidin-7-yl)-phenyl]-ethanone]
13 | 475 nM | 4.7 nM | O=C(Cc1ccc(-n2ccc3cnc(Nc4ccc(C(F)(F)F)cc4)nc32)cc1)N1CCOCC1 [Example 144, 1-Morpholin-4-yl-2-{4-[2-(4-trifluoromethyl-phenylamino)-pyrrolo[2,3-d]pyrimidin-7-yl]-phenyl}-ethanone]
